# Test results: patent US9486502B2, “Methods of administering interferon gamma to absorb fluid from the subretinal space” (The United States of America, as represented by the …, priority 2008, dated 2016)
# Where a name gives a salt, the structure may show the parent alone.
# Columns and labels:
# hfRPE monolayers = experiment: fluid transport (JV, TEP, RT) across hfRPE monolayers in modified Üssing chamber; type: cell-based, human; conditions: for effect on IFNγ induced increase in Jv: n=3
# Description: Confluent monolayers of hfRPE cultured on transwells were mounted in a modified Üssing chamber and transepithelial water flow measurements (JV) were made with a capacitance probe technique as described previously in Maminishkis, A., et al., Invest Ophthalmol Vis Sci, 2006, 47, 3612-3624; Shi, G., et al., Invest Ophthalmol Vis Sci, 2008, 49, 4620-4630; Edelman, J. L., et al., Invest Ophthalmol Vis Sci, 1991, 32, 3033-3040; Jiang, C., et al., Science, 1993, 262, 424-427; and Maminishkis, A., et al., Invest Ophthalmol Vis Sci, 2002, 43, 3555-3566, each incorporated herein by reference in its entirety.
# Tissue viability was ascertained by recording transepithelial potential (TEP) and total tissue resistance (RT). It should be noted that the solution composition changes in this chamber were relatively slow (≈1-2 chamber volumes per minute) and the data sampling rate was once per minute, more than two orders of magnitude slower than the sampling rate in the electrophysiology chamber (see below). Therefore it was not possible to record fast changes, in seconds or minutes, in JV, TEP, or RT. After addition of IFNγ to the apical or basal baths, steady-state JV, TEP, and RT were recorded for 20-30 minutes. In control experiments, successive additions of IFNγ were made to test for the repeatability and reversibility of responses. To block IFNγ effects, RPE cells were incubated for 30-60 minutes with a blocking antibody against IFNγ R1, JAK inhibitor I, PKA inhibitors (H-89, EMD Biosciences; RP-8-Br-cAMPS, Sigma-Aldrich), nitric oxide synthase inhibitor (aminoguanidine hydrochloride, Sigma-Aldrich), P38 MAPK inhibitors (SB203580 or SB20290), or CHX. Other components of this signaling pathway were studied using P38 MAPK inhibitors (SB203580 and SB202190). Relatively specific Cl channel inhibitors, CFTRinh-172 or DIDS (EMD Biosciences, La Jolla, Calif.), were used to block cAMP or Ca^2+-activated Cl channels; experiments with CFTRinh-172 were performed as described in Muanprasat, C., et al., J Gen Physiol, 2004, 124, 125-137, incorporated herein by reference in its entirety. In chronic experiments, paired hfRPE tissues with matched RT values were incubated for 4-24 hours with IFNγ or CHX. The subsequent changes in JV, RT, and TEP were measured in Ringer's solution or serum free cell culture media as previously described in Shi, G., et al., Invest Ophthalmol Vis Sci, 2008 and Maminishkis, A., et al., Invest Ophthalmol Vis Sci, 2006, 47, 3612-3624, each incorporated herein by reference in its entirety. Intracellular levels of NO were elevated with 1-Hydroxy-2-oxo-3-(3-aminopropyl)-3-isopropyl-1-triazene (NOC-5, Enzo Life Sciences, Plymouth, Pa.). 8-Br-cGMP was purchased from Sigma-Aldrich.
# hfRPE cells = experiment: immunoblotting of JAK-STAT / MAP kinase signalling proteins in hfRPE; type: cell-based, human; conditions: 4 hours
# Procedure: Immunoblotting was performed as previously described in Li, R. et al., 2007, Invest Ophthalmol Vis Sci, 48, 5722-5732, incorporated by reference in its entirety herein. Primary cultures of hfRPE and native human adult RPE cells were lysed using RIPA buffer (Sigma-Aldrich) supplemented with proteinase inhibitor cocktail (Roche). Total protein in the supernatant was measured (BCA™ protein assay, Pierce Biotechnology) and 20 µg of protein from cell lysate supernatants was electrophoresed on a 4-12% gradient Bis-Tris NuPAGE gel (Invitrogen) under reduced or non-reduced conditions. Resolved proteins were transferred to nitrocellulose membranes (membranes and XCell II™ Blot Module, Invitrogen).
# The membranes were incubated with mouse anti-human IFNγ R1 monoclonal antibody (R&D Systems), anti-human IFNγ R2 (Santa Cruz Biotechnology), anti-human IFNAR1, anti-human IFNAR2 (Abcam), anti-IRF1, anti-IRF2, anti-IRF8 (Santa Cruz Biotechnology) or anti-CFTR antibody 217 (Cystic Fibrosis Foundation Therapeutics Inc., Bethesda, Md.), after blocking non-specific binding ((StartingBlock™ T20 (TBS), Pierce Biotechnology). Membranes were then incubated with horseradish peroxidase (HRP) conjugated secondary antibody (Pierce Biotechnology) and visualized using Supersignal® West Dura Extended Duration Substrate (Pierce Biotechnology) and imaged using an Autochemie™ system (UVP, Upland, Calif.). The antibody-specific bands for IRF-1, IRF-2, ICSBP (IRF-8) and GAPDH were around 91 kDa, […], respectively.
# For phosphorylation studies, cells were starved for 24 hours in serum-free medium (“SFM,” MEM-α modification medium containing non-essential amino acids and Glutamine-Penicillin-Streptomycin). Cells were treated with IFNγ (5-50 ng/ml) in SFM at various time points at 37° C. and lysed with RIPA buffer supplemented with proteinase inhibitor cocktail (Roche) and Halt™ phosphatase inhibitor cocktail (Pierce Biotechnology). 40 μg of protein was electrophoresed. As in the immunoblotting experiments described above, except that the membranes were incubated with anti-phospho-p38 MAP kinase (Thr180/Tyr182), anti-p38 MAP kinase, anti-phospho-Stat1 (Tyr701), anti-phospho-Stat1 (Ser727) or anti-Stat1 antibodies, respectively (each from Cell signaling Technology, Danvers, Mass.). The antibody-specific bands for STAT1/phospho-STAT1 (Tyr701) were around 84 kDa. GAPDH was blotted together with anti-GAPDH antibody (Abcam) and used as loading control. Cyclohexamide (“CHX”; Sigma-Aldrich), a protein synthesis inhibitor, was used at 62 μM.
# For CFTR immunoblotting analysis, confluent monolayers of hfRPE were homogenized on ice in isolation solution (250 mM Sucrose, 10 mM Tris-HCl, 10 mM MgCl2, 1 mM CaCl2, pH 7.4) supplemented with Halt™ protease inhibitor cocktail, EDTA-free. Nuclei and intact cells were removed with centrifugation (900×g for 10 minutes at 4° C., followed by centrifugation at 10,000×g for 5 minutes). Crude plasma membrane proteins were collected after centrifugation at 100,000×g for 1 hour at 4° C.
# [1] = H-89 40 μM pre-treatment 30 minutes
smiles,measurement,setting,value
N=C(N)NN [aminoguanidine hydrochloride],effect on IFNγ induced increase in Jv,"hfRPE monolayers; iNOS inhibitor 100 μM applied after IFNγ 5 ng/ml, hydrochloride",blocks
same,effect on IFNγ induced increase in Jv,"hfRPE monolayers; iNOS inhibitor 100 μM applied after IFNγ 5 ng/ml, listed as aminoguandidie hydrochloride, hydrochloride",block
same,effect on IFNγ induced increase in Jv,hfRPE monolayers; pre-treatment with iNOS inhibitor,completely blocked
O=S(=O)(O)c1cc(N=C=S)ccc1C=Cc1ccc(N=C=S)cc1S(=O)(=O)O [DIDS],effect on spontaneous steady-state JV,"hfRPE monolayers; DIDS 500 μM, n=2",no effect
same,effect on JV following CFTRinh−172 inhibition of IFNγ-induced JV,"hfRPE monolayers; DIDS, n=2",no further inhibition
same,effect on IFNγ-induced JV increase,hfRPE monolayers; basal DIDS,not affected
"C[C@@H]1C[C@@H]([C@H](O)CC2CC(=O)NC(=O)C2)C(=O)[C@@H](C)C1 [CHX, cycloheximide]",effect of CHX per se on JV,"hfRPE monolayers; 62 μM, apical and basal, 30 minutes",no apparent change
same,IFNγ-induced JV increase after CHX pre-treatment,hfRPE monolayers; 4 hours of pre-treatment with CHX,no IFNγ-induced JV increase
same,effect on ability of CFTRinh−172 to block IFNγ-induced JV increase,hfRPE monolayers; CHX 62 μM 30 minutes,did not affect
same,effect on IFNγ-induced increase in JV,hfRPE monolayers; CHX 62 μM 30 minutes before IFNγ 5 ng/ml,no effect
same,JV after IFNγ and CHX,"hfRPE monolayers; IFNγ 5 ng/ml + CHX 62 μM, 24 hours, IFNγ alone 15.9, FIG. 14I",8.8 μl·cm^−2·hr^−1
same,JV after IFNγ and CHX,"hfRPE monolayers; another experiment, IFNγ alone 14.9",9.8 μl·cm^−2·hr^−1
same,effect on IRF-2 protein,"hfRPE cells; CHX 62 μM, with IFNγ",no effect
same,effect on de novo synthesis of IRF-1,"hfRPE cells; CHX 62 μM, with IFNγ",completely blocked
same,effect on STAT1 synthesis,hfRPE cells; cycloheximide with IFNγ,partly inhibited
O=S(=O)(NCCNC/C=C/c1ccc(Br)cc1)c1cccc2cnccc12 [H-89],effect on IFNγ stimulated JV increase,hfRPE monolayers; H-89 40 μM after IFNγ,significantly blocked
same,JV after H-89 added to IFNγ-stimulated hfRPE,"hfRPE monolayers; H-89 40 μM both sides, from 20.1±0.2",8.3±1.3 μl·cm^−2·hr^−1
same,effect on baseline level of JV,hfRPE monolayers; [1],no significant effect
same,effect on the effect of IFNγ,hfRPE monolayers; [1],completely blocked
same,JV after H-89,"hfRPE monolayers; four experiments, steady-state baseline 12.8±5.2",12.9±3.7 μl·cm^−2·hr^−1
Nc1nc2c(nc(Br)n2[C@@H]2O[C@@H]3COP(=O)(O)O[C@H]3[C@H]2O)c(=O)[nH]1 [8-Br-cGMP],JV after 8-Br-cGMP,"hfRPE monolayers; 100 μM both baths, FIG. 21, from 6.0",19.5 μl·cm^−2·hr^−1
same,Jv after 8-Br-cGMP,"hfRPE monolayers; four experiments, from 7.4±1.1",15.8±1.6 μl·cm^−2·hr^−1
